Reference: ChEMBL document CHEMBL2203182, “Identification of benzoylisoquinolines as potential anti-Chagas agents” (2012)
Activity calls are given as the source filed them. No cut-off for these calls is given here.

Columns and labels:
[1] = system: Trypanosoma cruzi; experiment: Antitrypanosomal activity against bloodstream trypomastigote form of Trypanosoma cruzi NINOA isolated from infected mouse at the peak of parasitemia assessed as reduction in number of live parasites at 18 to 36 uM after 24 hrs; type: functional, organism-based
[2] = system: Trypanosoma cruzi; experiment: Antitrypanosomal activity against bloodstream trypomastigote form of Trypanosoma cruzi NINOA isolated from infected mouse at the peak of parasitemia assessed as reduction in number of live parasites at 5 to 50 ug/ml after 24 hrs
[3] = system: Trypanosoma cruzi; experiment: Antitrypanosomal activity against bloodstream trypomastigote form of Trypanosoma cruzi NINOA isolated from infected mouse at the peak of parasitemia assessed as reduction in number of live parasites at 178 uM after 24 hrs; type: functional, organism-based
[4] = system: Trypanosoma cruzi; experiment: Antitrypanosomal activity against bloodstream trypomastigote form of Trypanosoma cruzi NINOA isolated from infected mouse at the peak of parasitemia assessed as reduction in number of live parasites at 161 uM after 24 hrs; type: functional; design: scale not given: the % may be the effect or the level left
[5] = system: Trypanosoma cruzi; experiment: Antitrypanosomal activity against bloodstream trypomastigote form of Trypanosoma cruzi NINOA isolated from infected mouse at the peak of parasitemia assessed as reduction in number of live parasites at 5 to 50 ug/ml after 24 hrs; type: functional, organism-based

In the case of `Nc1cccc(C(=O)c2[nH]c(=O)c3ccccc3c2O)c1`, the Activity [1] is reported as “Active”, the Activity [2] is reported as “Active” and the Activity [3] is reported as “inactive”.
`O=C(c1cccc([N+](=O)[O-])c1)c1[nH]c(=O)c2ccccc2c1O` was tested, and the Activity [4] was 47%.
In the case of `O=C(Cn1ccnc1[N+](=O)[O-])NCc1ccccc1`, the Activity [2] is reported as “Active”.
In the case of `O=C(c1ccccc1)c1[nH]c(=O)c2ccccc2c1O`, the Activity [5] is reported as “inactive”.
